Bridge positions count the residues as written; N and C are the ends. Peptide text beside a SMILES is read from it. A value given as a limit tells only on which side of the number the result lay.

Data set [1] can be described thus: In vivo pharmacokinetics after intravenous administration to rats. The arrangement: species or system male Sprague-Dawley rats. As to conditions: for AUC(0-inf) / MRT / Vd / half-life / clearance: rat, 5 mg/kg intravenous bolus, male Sprague-Dawley rats; for AUC(0-inf) / MRT / Vd / half-life: in vivo; for clearance: plasma, read-out: CI. The procedure:
The clearance and elimination of peptides can be mediated by multiple processes in vivo, including metabolism and renal elimination.
Test compounds were intravenously (i.v.) administered to male Spraque-Dawley rats (about is six weeks old, n=3 per compound) at 5 mg/kg. Blood samples were collected from jugular vein through implanted in-dwelling catheters (250 pl blood) into labelled polypropylene tubes containing anticoagulant (heparin) at 2 min, 5 min,15 min, 30 min, 1 h, 2 h and 4 h after compound administration and held on wet ice for a maximum of 30 minutes. The blood samples were centrifuged for plasma separation (4 °C, 21100 G, 5 min). Tolbutamide 500ng/ml with 10% TFA in acetonitrile or in MeCN was used as an internal standard solution.
The standard samples were prepared into rat plasma by spiking the matrix into concentrations 2-10 000 ng/ml of the analyte, respectively, and otherwise treated as the samples. To 50 pl aliquots of sample plasma was added 200 pl of internal standard. Samples were mixed (150 rpm, 15 min) and centrifugated (3000 rpm, 15min). The analytical method was optimized for reaction monitoring chromatographic (peak shape & retention) shifts and mass spectrometric properties (ionization efficiency, MS/MS detection). Supernatants were analyzed by UHPLC-TOF mass spectrometry using electrospray ionization.

Data set [2] deals with dopaminergic TH-positive neurons injured with MPP+. Description: Dependence of neuroprotective activity on UPR pathway signaling (MPP+ injured mesencephalic neurons with PERK or IRE1alpha inhibitor). It is filed as cell-based, rat. The note with it: for neuroprotective effect in the presence of PERK inhibitor GSK2606414: GSK2606414 added 1 h before test compound; for neuroprotective effect in the presence of IRE1alpha inhibitor KIRA6: KIRA6 added 1 h before test compound. The procedure: CDNF and MANF protect cells from ER stress-induced cell dysfunction or cell death, such as apoptosis by modulating cellular responses to ER stress. […] Binding of compounds to GRP78-NBD was assessed in a cell-free binding assay using purified recombinant GRP78-NBD and synthesized peptides. As GRP78 also serves as a critical ligand of the three receptors of the unfolded protein response (UPR) pathway, […], PERK and ATF6, the dependency of the compounds' neuroprotective effects on UPR signaling was also tested.
The neuronal cell culture, MPP+ intoxication, immunostaining and analysis of neuroprotective effects of compounds were performed as in Example 1. PERK inhibitor GSK2606414 (2 µM , Sigma) or IRE1alpha inhibitor KIRA6 (2 µM , Sigma) were added to the culture 1 h before addition of the test compounds.

The nature of data set [3]: Brain microdialysis (striatal interstitial fluid) after intravenous bolus. As to conditions: single 10 mg/kg intravenous bolus, microdialysis 4 hours. Format: in vivo, male Sprague-Dawley rats. On the procedure: Microdialysis probes were inserted to the ventral striatum of rats through implanted guide […] cannulas and perfused by aCSF. Compound 14 was administered as a single 10 mg/kg intravenous bolus injection and microdialysis samples were collected in 20-min interval for 4 hours. The brain interstitial fluid (ISF) concentrations of the compound were determined by LC-MS/MS and normalized to the recovery-% of the microdialysis membrane (determined by in vitro experiments).
Brain microdialysis study was carried out on the separate group of awake animals treated intravenously with compound 14. One week before the microdialysis experiment Sprague- Dawley rats were implanted with a guide cannula in the striatum at the following coordinates: AP +0.6 mm; L −3.0 mm; V −2.8 mm, providing the final V −6.8 mm for the tip of the microdialysis probe. On the day of the experiment a microdialysis probe (Eicom A-I: 0.22 mm O.D., 4 mm membrane length with cut-off 50 kDa) were inserted into the guide cannula and perfused at a constant flow-rate of 0.1 μL/min with artificial cerebrospinal fluid (aCSF) solution. […] The brain intrastitial fluid concentrations of the compound were analysed by UHPLC-MS/MS. […] Determined recovery percentage (29.3%) was used for correction of the data obtained in microdialysis study.

Another data set has as its target GRP78-NBD. Description: Binding to GRP78-NBD Kd (μM). An excerpt:
Table printed on a drawing sheet, FIG. 5B
Head of the field: Binding to GRP78-NBD Kd (μM)
GRP78-NBD is shown in a translucent surface model along with its cartoon trace. The Cys-Cys bond in compound 12 (SEQ ID NO: 12) is shown in sticks.
The binding affinities are obtained by a microscale thermophoresis-based cell-free assay.
GSK2606414 was used to inhibit PERK signaling and KIRA6 to inhibit IRE1alpha signaling. * p<0.05, ** p<0.01, *** p<0.001, **** p<0.0001 one-way ANOVA is test with post-hoc Fisher's LSD test for pairwise comparison vs MPP+ negative control. # p<0.05, ## p<0.01, ### p<0.001, #### p<0.0001 one-way ANOVA test with post-hoc Fisher's LSD test for pairwise comparison between effect of compound alone and its combination with UPR signal inhibitor.
Where the first naming reader finds the target: head: Binding to GRP78-NBD Kd (μM)

The nature of data set [4]: In vitro metabolic stability in human plasma. It is filed as in vitro ADME. As to conditions: 1 μM, 37° C., up to 120 min. The procedure: s Metabolic stability studied using human plasma over the time period of 120 min, with initial test concentration of 1 μM. Samples were analyzed using LC/QE-orbitrap-MS. Calculated half-life is based on compound disappearance in human plasma.
The linear or macrocyclic compounds 1-8, 11-14 and 23-24 (SEQ ID NOs: 1-8, 11-14 and 23-26) were incubated in concentration 1 μM with human plasma (mixed gender, 400 μl) for different time points (0, 20, 40, 60 or 120 min) at 37° C. The incubation was terminated by acetonitrile. The collected samples were centrifuged for 20 min at 2272×g and analyzed. The samples were analyzed by UHPLC/PDA with high resolution mass spectrometry (QE-Orbitrap-MS on DDI mode) to monitor disappearance of the compound. Propanthelin […] bromide 1 μM was used as a disappearance rate control. The analytical method was optimized by using the parent compounds for optimum chromatographic properties (peak shape and retention) and mass spectrometric ionization. The Ion chromatograms were extracted from the total ion chromatograms using calculated monoisotopic accurate masses with 5 mDa window. Disappearance was based on LC/MS peak areas, marking 0 min as 100%. The first-order rate constants k (min-1) of the metabolism were obtained from the slope of time versus logarithm (% of remaining compound) plot using Excel software.

The AUC(0-inf) is the area under the concentration-time curve extrapolated to infinity. High values mean more exposure, low ones less exposure. Usually MRT stands for the average time that molecules of a dose stay in the body. What is called Vd is a proportionality between amount in the body and measured concentration, not a real space. Broadly, the half-life is how long it takes for the measured level to halve. Read a high half-life as slow loss. In general, Kd refers to the equilibrium constant for the complex coming apart. For the compound `C[C@@H]1NC(=O)[C@@H]2CSSC[C@H](NC(=O)[C@H]([C@@H](C)O)NC(=O)[C@H](CCC(=O)O)NC(=O)CNC(=O)[C@H](Cc3c[nH]c4ccccc34)NC(=O)[C@H](CO)NC(=O)[C@H](CCCCN)NC(=O)[C@H](CCC(=O)O)NC1=O)C(=O)N[C@@H](CCCCN)C(=O)NCC(=O)N2` [Compound 14, WGETCKGCAEKS] (cyclo(AEKSWGETCKGC); disulfide 9-12), the “plasma half-life, volume of distribution and mean residence time” value in data set [1] (intravenous administration to rats) is reported as “improved”. Moreover, in data set [1] (intravenous, 5 mg/kg, rats), the blood retention behavior entry is “improved blood retention behavior” and the “time detected in the plasma after administration” value is ≥ 2 h. For the same compound, in data set [1], the total exposure AUC(0-inf) was determined as 4970 ng·h/mL, the mean residence time MRT was 7.05 min, the Vd amounted to 0.12 L/kg and the half-life amounted to 15.8 min. For the same compound, the clearance in data set [1] was found to be 16.8 mL/min/kg. In data set [2], the “neuroprotective effect in the presence of PERK inhibitor GSK2606414” value is reported as “abolished” and the “neuroprotective effect in the presence of IRE1alpha inhibitor KIRA6” value is on record as “abolished”. The “penetration to the brain parenchyma (brain ISF, striatum)” value in data set [3] is “penetration”. For the same compound, the Kd at GRP78-NBD is 1500 nM.
On to `C[C@@H]1NC(=O)[C@@H]2CSSC[C@H](NC(=O)[C@H](CCC(=O)O)NC(=O)[C@H](CCC(=O)O)NC(=O)CNC(=O)[C@H](Cc3c[nH]c4ccccc34)NC(=O)[C@H]([C@@H](C)O)NC(=O)[C@H](CCCCN)NC(=O)[C@H](CCC(=O)O)NC1=O)C(=O)N[C@@H](CCCNC(=N)N)C(=O)N[C@@H](C)C(=O)N2` [Compound 12, WGEECRACAEKT] (cyclo(ACAEKTWGEECR); disulfide 2-11), for which, on GRP78-NBD, the dissociation constant Kd turned out to be 1650 nM.
Take `CC[C@H](C)[C@@H]1NC(=O)[C@H](CO)NC(=O)[C@H](CCCCN)NC(=O)[C@H](CCC(=O)O)NC(=O)[C@H](C)NC(=O)[C@@H]2CSSC[C@H](NC(=O)[C@H]([C@@H](C)O)NC(=O)[C@H](CCC(=O)O)NC(=O)CNC(=O)[C@H](Cc3c[nH]c4ccccc34)NC(=O)[C@H](CC(=O)O)NC(=O)[C@H](CC(=O)O)NC(=O)[C@H](CC(C)C)NC1=O)C(=O)N[C@@H](CCCCN)C(=O)NCC(=O)N2` [Compound 10, KSILDDWGETCKGCAE] (cyclo(AEKSILDDWGETCKGC); disulfide 13-16): in data set [1], the AUC(0-inf) came out at 2140 ng·h/mL, the mean residence time MRT was 1.2 min, the Vd is 0.05 L/kg and the half-life came to 3.6 min. The clearance in data set [1] amounted to 39.9 mL/min/kg. In addition, in data set [2], the “neuroprotective effect in the presence of PERK inhibitor GSK2606414” value is on record as “abolished” and the “neuroprotective effect in the presence of IRE1alpha inhibitor KIRA6” value is listed as “abolished”.
Turning to `C[C@@H]1NC(=O)[C@@H]2CSSC[C@H](NC(=O)[C@H]([C@@H](C)O)NC(=O)[C@H](CCC(=O)O)NC(=O)CNC(=O)[C@H](Cc3c[nH]c4ccccc34)NC(=O)[C@H](CO)NC(=O)[C@H](CCCCN)NC(=O)[C@H](CCC(=O)O)NC1=O)C(=O)N[C@@H](CCCCN)C(=O)NCC(=O)NCC(=O)N2` [Compound 26, WGETCKGGCAEKS] (cyclo(AEKSWGETCKGGC); disulfide 9-13), the “stability in human plasma as compared to linear counterpart” value in data set [4] is “improved stability”.
In data set [1], `CC[C@H](C)[C@@H]1NC(=O)[C@H](CCC(N)=O)NC(=O)[C@H](CCCCN)NC(=O)[C@H](CC(C)C)NC(=O)[C@H](CCC(=O)O)NC(=O)[C@H](C)NC(=O)[C@H](C(C)C)NC(=O)[C@H](CCCNC(=N)N)NC(=O)[C@H](CCSC)NC(=O)[C@H](CCCCN)NC(=O)[C@H](CCCNC(=N)N)NC(=O)[C@H](CC(C)C)NC(=O)[C@H](CC(=O)O)NC(=O)[C@H](C(C)C)NC(=O)[C@H](CCC(=O)O)NC(=O)[C@H](C)NC(=O)[C@@H]2CSSC[C@H](NC(=O)[C@H](CCC(=O)O)NC(=O)[C@H](CCC(=O)O)NC(=O)CNC(=O)[C@H](Cc3c[nH]c4ccccc34)NC(=O)[C@H](CO)NC(=O)[C@H](Cc3c[nH]cn3)NC(=O)[C@H](CC(C)C)NC1=O)C(=O)N[C@@H](CCCNC(=N)N)C(=O)N[C@@H](C)C(=O)N2` [Compound 2] (cyclo(ACAEVDLRKMRVAELKQILHSWGEECR); disulfide 2-26) gave an area under the curve AUC(0-inf) of 4440 ng·h/mL, an MRT of 1.01 min, a distribution volume (Vd) of 0.02 L/kg and a half-life of 3.78 min. Besides, the clearance in data set [1] turned out to be 20.6 mL/min/kg. For the same compound, the “stability in human plasma as compared to linear counterpart” value in data set [4] is “improved stability”.

For the origin of these results see US20230391841A1, “MACROCYCLIC PEPTIDES” (Herantis Pharma OYJ, priority 2019, published 2023).
